Test results as given in patent US20250250230A1, “HETEROCYCLIC COMPOUND” (TAKEDA PHARMACEUTICAL COMPANY LIMITED, priority 2022, published 2025).

Molecular target: T1, human orexin type 2 receptor (Homo sapiens, UniProt O43614)
T1 construct: expressed in transfected cells
T1 sequence (O43614 1-444): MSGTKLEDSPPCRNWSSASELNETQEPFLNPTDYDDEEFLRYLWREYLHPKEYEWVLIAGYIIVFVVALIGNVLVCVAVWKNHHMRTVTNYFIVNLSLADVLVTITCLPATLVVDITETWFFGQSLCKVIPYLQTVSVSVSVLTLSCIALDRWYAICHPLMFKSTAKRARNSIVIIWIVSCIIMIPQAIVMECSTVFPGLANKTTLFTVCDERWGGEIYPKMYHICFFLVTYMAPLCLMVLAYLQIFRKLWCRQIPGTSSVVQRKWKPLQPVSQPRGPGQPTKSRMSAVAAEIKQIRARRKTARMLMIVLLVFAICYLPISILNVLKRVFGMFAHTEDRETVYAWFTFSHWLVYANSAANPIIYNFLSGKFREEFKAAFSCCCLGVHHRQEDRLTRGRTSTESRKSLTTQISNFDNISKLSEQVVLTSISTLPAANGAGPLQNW
Assay: Measurement of orexin type 2 receptor agonist activity (calcium fluorescence, Fluo-4 AM, FDSS)
Format: cell-based
Settings: test compound 3 μM; CHO cells expressing human OX2 receptor; DMSO = 0%, orexin A (human) = 100%
Procedure, shortened: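 Agonist response scaled between vehicle (0%) and human orexin A at 10 nM final (100%), from 2-min kinetic Fluo-4 fluorescence reads. Stable hOX2R CHO-K1 clone, dye-loaded in HBSS/20 mM HEPES/0.1% BSA with 1.25 mM probenecid before compound addition.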

Compared with CCNS(=O)(=O)NC[C@@H]1[C@H](F)CN1C(=O)[C@@H]1C[C@@]1(F)c1ccc(F)cc1-c1c(F)cccc1F [Example 427, N-ethyl-N′-({(2R,3R)-3-fluoro-1-[(1S,2S)-2-fluoro-2-(2′,5,6′-trifluoro[1,1′-biphenyl]-2-yl)cyclopropane-1-carbonyl]azetidin-2-yl}methyl)sulfuric diamide], O=C([C@@H]1C[C@@]1(F)c1ccc(F)cc1-c1c(F)cccc1F)N1C[C@@H](F)[C@H]1CNS(=O)(=O)C(F)F [Example 448, 1,1-difluoro-N-({(2R,3R)-3-fluoro-1-[(1S,2S)-2-fluoro-2-(2′,5,6′-trifluoro[1,1′-biphenyl]-2-yl)cyclopropane-1-carbonyl]azetidin-2-yl}methyl)methanesulfonamide] is higher in “OX2R agonist activity (3 μM, %)” value: 96% for the first, 98% for the second.

First: CS(=O)(=O)N[C@H]1C[C@H](O)CN(C(=O)[C@@H]2C[C@@]2(F)c2ccccc2-c2c(F)cccc2F)C1 [Example 332, N-{(3S,5S)-1-[(1S,2S)-2-(2′,6′-difluoro[1,1′-biphenyl]-2-yl)-2-fluorocyclopropane-1-carbonyl]-5-hydroxypiperidin-3-yl}methanesulfonamide]
Second: CS(=O)(=O)NC1CCN(C(=O)C2CC2c2ccccc2-c2c(F)cccc2F)C1 (racemic) [Example 4, a mixture of rac-N-{(3R)-1-[(1R,2R)-2-(2′,6′-difluoro[1,1′-biphenyl]-2-yl)cyclopropane-1-carbonyl]pyrrolidin-3-yl}methanesulfonamide and rac-N-{(3S)-1-[(1R,2R)-2-(2′,6′-difluoro[1,1′-biphenyl]-2-yl)cyclopropane-1-carbonyl]pyrrolidin-3-yl}methanesulfonamide]
The “OX2R agonist activity (3 μM, %)” value of the first is lower: 95% for the first, 102% for the second.

Compared with C[C@H]1C[C@H](NS(C)(=O)=O)CN1C(=O)C1(C)CC1c1ccccc1-c1c(F)cccc1F (stereo partly drawn) [Example 315, N-{(3S,5S)-1-[(1R,2S)-2-(2′,6′-difluoro[1,1′-biphenyl]-2-yl)-1-methylcyclopropane-1-carbonyl]-5-methylpyrrolidin-3-yl}methanesulfonamide, or N-{(3S,5S)-1-[(1S,2R)-2-(2′,6′-difluoro[1,1′-biphenyl]-2-yl)-1-methylcyclopropane-1-carbonyl]-5-methylpyrrolidin-3-yl}methanesulfonamide], CS(=O)(=O)NC1CN(C(=O)C2CC2c2ccccc2-c2c(F)cccc2F)CC1(F)F (stereo not drawn) [Example 180, N-{1-[2-(2′,6′-difluoro[1,1′-biphenyl]-2-yl)cyclopropane-1-carbonyl]-4,4-difluoropyrrolidin-3-yl}methanesulfonamide optical isomer] is higher in “OX2R agonist activity (3 μM, %)” value: 91% for the first, 95% for the second.

Going from CCS(=O)(=O)NC[C@H]1[C@@H](F)CN1C(=O)[C@@H]1C[C@@]1(F)c1ccccc1-c1c(F)cccc1F [Example 426, N-({(2S,3S)-1-[(1S,2S)-2-(2′,6′-difluoro[1,1′-biphenyl]-2-yl)-2-fluorocyclopropane-1-carbonyl]-3-fluoroazetidin-2-yl}methyl)ethanesulfonamide] to CS(=O)(=O)NC[C@H]1CN(C(=O)[C@@H]2C[C@H]2c2ccccc2-c2c(F)cccc2F)CCO1 [Example 282, N-({(2R)-4-[(1R,2R)-2-(2′,6′-difluoro[1,1′-biphenyl]-2-yl)cyclopropane-1-carbonyl]morpholin-2-yl}methyl)methanesulfonamide], the “OX2R agonist activity (3 μM, %)” value falls from 104% to 87%.

In the case of CC1(NS(C)(=O)=O)CCCN(C(=O)[C@@H]2C[C@H]2c2ccccc2-c2c(F)cccc2F)CC1 (mixture of isomers) [Example 313, a mixture of N-{(4R)-1-[(1R,2R)-2-(2′,6′-difluoro[1,1′-biphenyl]-2-yl)cyclopropane-1-carbonyl]-4-methylazepan-4-yl}methanesulfonamide and N-{(4S)-1-[(1R,2R)-2-(2′,6′-difluoro[1,1′-biphenyl]-2-yl)cyclopropane-1-carbonyl]-4-methylazepan-4-yl}methanesulfonamide], the “OX2R agonist activity (3 μM, %)” value is reported as 97%.
